In patent US20070185132A1, “Cyclopropyl group substituted oxazolidinone antibiotics and derivatives thereo” (priority 2003, published 2007):
In brackets after ≈: the same amount, converted by molar mass.

Legend:
Type in all cases: cell-based
[1] = tested on: Enterococcus faecium VRQR (vancomycin resistant, quinolone resistant); assay: MIC, agar dilution method, E. faecium VRQR; conditions: Mueller-Hinton agar with 5% defibrinated horse blood, 35° C., 5% CO2, 24 hours
Procedure: (§1) The following in vitro results were obtained based on an agar dilution method except for C. pneumoniae. The activity is presented as the minimum inhibitory concentration (MIC).
(§2) Streptococci and enterococci were tested on Mueller-Hinton agar supplemented with 5% defibrinated horse blood, using an approximate inoculum of 1×10^4 cfu/spot an incubation temperature of 35° C. in an atmosphere of 5% CO2 for 24 hours. The MIC was defined as the lowest concentration at which no visible bacterial growth was observed.

[2] = tested on: Moraxella catarrhalis ATCC25238; assay: MIC, agar dilution method, M. catarrhalis ATCC25238; conditions: Mueller-Hinton agar, 35° C., 24 hours
Procedure: as §1
(§3) S. aureus and M. catarrhalis were tested on Mueller-Hinton agar, using an approximate inoculum of 1×10^4 cfu/spot an incubation temperature of 35° C. for 24 hours. The MIC was defined as the lowest concentration at which no visible bacterial growth was observed.

[3] = tested on: Streptococcus pneumoniae PRQR (penicillin resistant, quinolone resistant); assay: MIC, agar dilution method, S. pneumoniae PRQR; conditions: Mueller-Hinton agar with 5% defibrinated horse blood, 35° C., 5% CO2, 24 hours
Procedure: as §1, §2

[4] = tested on: Streptococcus pneumoniae IID553; assay: MIC, agar dilution method, S. pneumoniae IID553; conditions: Mueller-Hinton agar with 5% defibrinated horse blood, 35° C., 5% CO2, 24 hours
Procedure: as §1, §2

[5] = tested on: Staphylococcus aureus Smith; assay: MIC, agar dilution method, S. aureus Smith; conditions: Mueller-Hinton agar, 35° C., 24 hours
Procedure: as §1, §3

[6] = tested on: Staphylococcus aureus CR (chloramphenicol resistant); assay: MIC, agar dilution method, S. aureus CR; conditions: Mueller-Hinton agar, 35° C., 24 hours
Procedure: as §1, §3

[7] = tested on: Staphylococcus aureus MR (methicillin resistant); assay: MIC, agar dilution method, S. aureus MR; conditions: Mueller-Hinton agar, 35° C., 24 hours
Procedure: as §1, §3

[8] = tested on: Streptococcus pyogenes IID692; assay: MIC, agar dilution method, S. pyogenes IID692; conditions: Mueller-Hinton agar with 5% defibrinated horse blood, 35° C., 5% CO2, 24 hours
Procedure: as §1, §2

| SMILES | MIC [1] [µg/mL] | MIC [2] [µg/mL] | MIC [3] [µg/mL] | MIC [4] [µg/mL] | MIC [5] [µg/mL] | MIC [6] [µg/mL] | MIC [7] [µg/mL] | MIC [8] [µg/mL] |
| --- | --- | --- | --- | --- | --- | --- | --- | --- |
| N#CC1(c2ccc(-c3ccc(N4C[C@H](Cn5ccnn5)OC4=O)cc3)cn2)CC1 [Example 18, 1-[5(R)-3-[4-[2-(1-Cyanocyclopropan-1-yl)pyridin-5-yl]phenyl]-2-oxooxazolidin-5-ylmethyl]-1,2,3-triazole] | 0.125 (≈ 0.323 µM) | 0.5 (≈ 1.29 µM) | 0.125 (≈ 0.323 µM) | 0.125 (≈ 0.323 µM) | 0.06 (≈ 0.155 µM) | 1 (≈ 2.59 µM) | 0.06 (≈ 0.155 µM) | 0.06 (≈ 0.155 µM) |
| CC(=O)NC[C@H]1CN(c2ccc(N3CCOCC3)c(F)c2)C(=O)O1 [Linezolid, reference compound] | 2 (≈ 5.93 µM) | 4 (≈ 11.9 µM) | 1 (≈ 2.96 µM) | 2 (≈ 5.93 µM) | 1 (≈ 2.96 µM) | 16 (≈ 47.4 µM) | 1 (≈ 2.96 µM) | 1 (≈ 2.96 µM) |
| N[C@@H]1[C@H]2CN(c3ccc(-c4ccc(N5C[C@H](Cn6ccnn6)OC5=O)cc4F)cn3)C[C@@H]12 [Example 32, 1-[5(R)-3-[4-[2-[(1α,5α,6α)-6-amino-3-azabicyclo[3.1.0]hexan-3-yl]pyridin-5-yl]-3-fluorophenyl]-2-oxooxazolidin-5-ylmethyl]-1,2,3-triazole] | 0.5 (≈ 1.15 µM) | 2 (≈ 4.59 µM) | 0.125 (≈ 0.287 µM) | 0.25 (≈ 0.574 µM) | 0.125 (≈ 0.287 µM) | 1 (≈ 2.3 µM) | 0.125 (≈ 0.287 µM) | 0.125 (≈ 0.287 µM) |
| CC(=O)NC[C@H]1CN(c2ccc(-c3ccc(C4(N)CC4)nc3)cc2)C(=O)O1 [Example 5, N-[5(S)-3-[4-[2-(1-Aminocyclopropan-1-yl)pyridin-5-yl]phenyl]-2-oxooxazolidin-5-ylmethyl]acetamide] | 0.5 (≈ 1.36 µM) | 2 (≈ 5.46 µM) | 0.25 (≈ 0.682 µM) | 0.5 (≈ 1.36 µM) | 0.25 (≈ 0.682 µM) | 2 (≈ 5.46 µM) | 0.5 (≈ 1.36 µM) | 0.25 (≈ 0.682 µM) |
| CC(=O)NC[C@H]1CN(c2ccc(-c3ccc(C4(C#N)CC4)nc3)c(F)c2)C(=O)O1 [Example 3, N-[5(S)-3-[4-[2-(1-Cyanocyclopropan-1-yl)pyridin-5-yl]-3-fluorophenyl]-2-oxooxazolidin-5-ylmethyl]acetamide] | 0.125 (≈ 0.317 µM) | 0.5 (≈ 1.27 µM) | 0.125 (≈ 0.317 µM) | 0.125 (≈ 0.317 µM) | 0.06 (≈ 0.152 µM) | 0.5 (≈ 1.27 µM) | 0.125 (≈ 0.317 µM) | 0.125 (≈ 0.317 µM) |
